This assay addresses T1, Human TG2 (Homo sapiens, UniProt P21980).
T1 construct: made in house
T1 sequence (P21980 1-687): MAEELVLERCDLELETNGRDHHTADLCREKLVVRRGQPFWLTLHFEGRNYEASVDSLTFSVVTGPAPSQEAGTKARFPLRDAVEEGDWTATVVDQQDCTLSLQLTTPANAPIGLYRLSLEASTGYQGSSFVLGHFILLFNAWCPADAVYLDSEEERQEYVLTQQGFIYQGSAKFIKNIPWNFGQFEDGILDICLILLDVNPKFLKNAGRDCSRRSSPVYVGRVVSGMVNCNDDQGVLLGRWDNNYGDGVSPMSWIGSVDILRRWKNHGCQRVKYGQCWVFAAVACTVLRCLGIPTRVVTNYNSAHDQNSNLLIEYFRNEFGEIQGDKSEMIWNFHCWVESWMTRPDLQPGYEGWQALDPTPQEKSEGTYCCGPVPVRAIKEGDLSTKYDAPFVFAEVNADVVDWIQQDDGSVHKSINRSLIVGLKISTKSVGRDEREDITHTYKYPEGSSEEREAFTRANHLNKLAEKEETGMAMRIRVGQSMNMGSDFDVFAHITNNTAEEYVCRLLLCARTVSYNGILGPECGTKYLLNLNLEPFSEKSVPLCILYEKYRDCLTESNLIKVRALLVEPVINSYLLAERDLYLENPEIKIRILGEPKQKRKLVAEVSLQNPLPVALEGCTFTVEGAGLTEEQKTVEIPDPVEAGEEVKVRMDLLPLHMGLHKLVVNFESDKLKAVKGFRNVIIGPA
Kind of assay: Colorimetric AL5 transamidase assay of TG2 inhibition kinetics. As to conditions: for TG2 Inh. Mode: Irrev = irreversible, None = no inhibition detected up to 350 μM; for kinact/KI / kinact: irreversible inhibition; for TG2 inhibition: up to 360 µM; for kinact: saturation fit. Type of assay: biochemical. How it is done:
All inhibitors synthesised herein were evaluated for inhibition against FXIIIa, using the fluorescence-quenched A101 isopeptidase assay, and against TG2, using the colorimetric AL5 transamidase assay. The assay substrates A101 and AL5 both present labile bonds that are cleaved by the activities of their corresponding transglutaminases, resulting in the release of a fluorophore or chromophore moiety, respectively. The rate of consumption of these assay substrates, indicated by increases in fluorescence or absorbance over time, can be detected for measuring enzyme activity. Assays were run in duplicate at constant reporter substrate concentration with varying concentrations of inhibitor. The type of inhibition was determined through visual inspection of the fluorescence-time curvature; termination of the enzymatic reaction with the substrate at a plateau lower than the no-inhibitor positive control is indicative of irreversible inhibition. On the other hand, convergence to a common plateau indicates reversible inhibition.
A colorimetric transamidase assay using chromogenic substrate AL5 (Cbz-Glu(ɣ-p-nitrophenyl ester)Gly-OH) was used to determine TG2 inhibition kinetics as described previously. In brief, assays were conducted at 25 °C in 96-well plates, and absorbance at 405 nm was monitored continuously using a BioTek Synergy 4 plate reader. For each compound, 6 inhibitor concentrations were tested, along with positive (no inhibitor) and negative (no enzyme, no inhibitor) controls. All assays were run in duplicate as separate independent experiments. Human TG2 expressed and purified as described previously and stored in aqueous buffer at −80 °C, was first thawed and diluted to a working concentration of 50 mU/mL in the buffer. The diluted enzyme solution was stored on ice. The appropriate amount of distilled water, 125 μL of aqueous buffer (111 mM MOPS, 15.6 mM CaCl2, pH 6.9), the desired amount of inhibitor (from a DMSO stock solution), and 5.0 μL of AL5 (from a 5.56 mM DMSO solution) were added in that order to 7 Eppendorf tubes to reach final volumes of 250 μL per tube. After mixing thoroughly, 180 μL of the mixture from each tube was transferred to plate wells. To initiate the assay, 20 μL of the diluted TG2 solution was added using a multichannel pipette to each well except the negative control, which was treated with water. The final reaction conditions were pH 6.9, 50.0 mM MOPS, 7.0 mM CaCl2, 100 μM AL5, and 5 mU/mL TG2. […] Data collection was then initiated after mixing by quick aspiration, and the assay was allowed to run for 20 min.
The type of inhibition for both TG2 and FXIIIa was primarily determined by visual inspection of kinetic traces. […] This assumption was tested and validated with inhibitor 47 through an A101 substrate spike experiment. Additional A101 (5 μL of 4000 μM stock in DMSO) was added to enzymatic reactions lacking in inhibitor (positive control) and pre-treated with inhibitor (50, 100, 150, 200 μM) after the initial reactions were complete and fluorescence plateaus had been reached. Data collection at 37 °C was re-commenced immediately after the addition, and fluorescence was monitored over time as previously described. On the other hand, inhibitors producing kinetic curves in which earlier and lower plateaus in fluorescence or absorbance were observed as inhibitor concentration was increased were assumed to be operating through irreversible time-dependent covalent inactivation. This assumption was tested and validated with inhibitor 23 through an A101 substrate spike experiment in which an additional 5 μL of A101 substrate stock solution (4000 μM in DMSO) was added to the positive control and highest inhibitor concentration (200 μM) reaction. […]

Where [1] appears, read: small molecule series, irreversible KI for 87 and 88.

“Also recorded” adds a separate entry of the source. Starred links: 1 amine or outer side, 2 acyl side, 3 side chain; linkers in the order of their positions; H or OH if unused. Non-standard residues stand in square brackets, D forms with d. Residues, ends and D or L forms follow the SMILES beside them. *: point of attachment. RhodamineB = CCN(CC)c1ccc2c(-c3ccccc3C(=O)*)c3ccc(=[N+](CC)CC)cc-3oc2c1; X1 = COC(=O)/C=C/CC[C@H](N[*:1])C(=O)[*:2]; X2 = COC(=O)C=CCCC[C@H](N[*:1])C(=O)[*:2]; X3 = COC(=O)C=CC[C@H](N[*:1])C(=O)[*:2]; Nle = CCCC[C@H](N)C(=O)O; Orn = NCCC[C@H](N)C(=O)O; Dab = NCC[C@H](N)C(=O)O; Acryloyl = C=CC(=O)*; Ahx = NCCCCCC(=O)O

The kinact/KI is the maximal inactivation rate divided by the concentration that gives half of it. Broadly, the kinact is the maximal first-order rate at which the target is inactivated.

As to `C=CC(=O)NCC[C@H](NC(=O)[C@@H](CC(=O)O)NC(C)=O)C(=O)N[C@@H](CCCC)C(=O)N[C@@H](CCCC)C(=O)N[C@@H](CC(C)C)C(=O)N1CCC[C@H]1C(=O)N[C@@H](Cc1c[nH]c2ccccc12)C(=O)N1CCC[C@H]1C(=O)O` [Compound 12, Ac-D-Asp-Dab(Acrylamide)-Nle-Nle-Leu-Pro-Trp-Pro-OH] (Ac-[dD][Dab](Acryloyl)[Nle][Nle]LPWP-OH), the “TG2 Inh. Mode” value is on record as “No inhibition; also recorded: None **”. Same read-out and setting: the same measure for `C=CC(=O)NCCC[C@H](NC(=O)[C@@H](CC(=O)O)NC(C)=O)C(=O)N[C@@H](CCCC)C(=O)N[C@@H](CCCC)C(=O)N[C@@H](CC(C)C)C(=O)N1CCC[C@H]1C(=O)N[C@@H](Cc1c[nH]c2ccccc12)C(=O)N1CCC[C@H]1C(=O)O` [Compound 13] (Ac-[dD][Orn](Acryloyl)[Nle][Nle]LPWP-OH): “No inhibition; also recorded: None **”; for `C=CC(=O)NCCCC[C@H](NC(=O)[C@@H](CC(=O)O)NC(C)=O)C(=O)N[C@@H](CCCC)C(=O)N[C@@H](CCCC)C(=O)N[C@@H](CC(C)C)C(=O)N1CCC[C@H]1C(=O)N[C@@H](Cc1c[nH]c2ccccc12)C(=O)N1CCC[C@H]1C(=O)O` [Compound 14] (Ac-[dD]K(Acryloyl)[Nle][Nle]LPWP-OH): “No inhibition; also recorded: None **”; for `CCCC[C@H](NC(=O)[C@H](CC=CC(=O)OC)NC(=O)[C@@H](CC(=O)O)NC(C)=O)C(=O)N[C@@H](CCCC)C(=O)N[C@@H](CC(C)C)C(=O)N1CCC[C@H]1C(=O)N[C@@H](Cc1c[nH]c2ccccc12)C(=O)N1CCC[C@H]1C(=O)O` [Compound 45] (Ac-[dD][X3][Nle][Nle]LPWP-OH): “No inhibition; also recorded: lack of inhibition; also recorded: None **”. Regarding `CCCC[C@H](NC(=O)[C@H](CCCC=CC(=O)OC)NC(=O)[C@@H](CC(=O)O)NC(C)=O)C(=O)N[C@@H](CCCC)C(=O)N[C@@H](CC(C)C)C(=O)N1CCC[C@H]1C(=O)N[C@@H](Cc1c[nH]c2ccccc12)C(=O)N1CCC[C@H]1C(=O)O` [Compound 47] (Ac-[dD][X2][Nle][Nle]LPWP-OH), the “TG2 Inh. Mode” value is reported as “Irrev” and the inactivation efficiency (kinact/KI) was 530 M⁻¹ s⁻¹. Turning to `C=CC(=O)NCC(NC(=O)CC(=O)O)C(=O)N1CCN(S(=O)(=O)c2cccc3c(N(C)C)cccc23)CC1` (stereo not drawn) [Compound 71], the TG2 inhibition result (small molecule series) is “No inhibition”.

On to `C=CC(=O)NCC(NC(=O)CC(=O)O)C(=O)N1CCN(C(=O)c2cccc3ccccc23)CC1` (stereo not drawn) [Compound 72], for which, where the note is “small molecule series”, the TG2 inhibition result is recorded as “No inhibition”. For the compound `C=CC(=O)NCC(NC(=O)C1(C(=O)OC)CC1)C(=O)N1CCN(S(=O)(=O)c2cccc3c(N(C)C)cccc23)CC1` (stereo not drawn) [Compound 73], the TG2 inhibition entry (small molecule series) was “No inhibition”. Still for that read-out and setting: the same measure for `C=CC(=O)NCC(NC(=O)C1(C(=O)O)CC1)C(=O)N1CCN(S(=O)(=O)c2cccc3c(N(C)C)cccc23)CC1` [Compound 74, Acid-Cyclopropyl-L-Dap(Acryl)-Piperazine-Dansyl]: “No inhibition”. Still for that read-out and setting: the same measure for `C=CC(=O)NCC(NC(=O)CCC(=O)O)C(=O)N1CCN(S(=O)(=O)c2cccc3c(N(C)C)cccc23)CC1` [Compound 75, Succinyl-L-Dap(Acryl)-Piperazine-Dansyl]: “No inhibition”; for `C=CC(=O)NCC(NC(=O)CCC(=O)O)C(=O)N1CCN(S(=O)(=O)c2cccc3ccccc23)CC1` [Compound 76, Succinyl-L-Dap(Acryl)-Piperazine-Sulfonyl-Naphthalene]: “No inhibition”; for `C=CC(=O)NCC(NC(=O)CCC(=O)O)C(=O)N1CCN(C(=O)c2cccc3ccccc23)CC1` [Compound 77, Succinyl-L-Dap(Acryl)-Piperazine-Naphthoyl]: “No inhibition”.

With `C=CC(=O)NCC(NS(=O)(=O)CC(=O)O)C(=O)N1CCN(S(=O)(=O)c2cccc3c(N(C)C)cccc23)CC1` (stereo not drawn) [Compound 79], the TG2 inhibition entry (small molecule series) is “No inhibition”. Still for that read-out and setting: in the case of `C=CC(=O)NC(CNC(=O)CCC(=O)O)C(=O)N1CCN(C(=O)c2cccc3ccccc23)CC1` (stereo not drawn) [Compound 84] it was “No inhibition”.

`COC(=O)C=CCCC(NC(=O)CCC(=O)O)C(=O)N1CCN(C(=O)c2cccc3ccccc23)CC1` (stereo not drawn) [Compound 87]: the inactivation efficiency (kinact/KI) is 139 M⁻¹ s⁻¹ and the inactivation rate constant (kinact) was 0.00199 s⁻¹. Moreover, under setting [1], the Ki was found to be 14.3 ± 7 µM.

In the case of `COC(=O)C=CCCC(NC(=O)c1ccccc1C(=O)O)C(=O)N1CCN(C(=O)c2cccc3ccccc23)CC1` (stereo not drawn) [Compound 88], the inactivation efficiency (kinact/KI) was 104 M⁻¹ s⁻¹ and the inactivation rate constant (kinact) is 0.0022 s⁻¹. Under setting [1], the KI (inactivation) came to 21.2 ± 8.96 µM and the Ki was determined as 21.2 ± 9 µM. As to `CCCC[C@H](NC(=O)[C@H](CC/C=C/C(=O)OC)NC(=O)[C@@H](CC(=O)O)NC(=O)CCCCCNC(=O)[C@@H]1CCCN1C(=O)c1ccccc1-c1c2ccc(=[N+](CC)CC)cc-2oc2cc(N(CC)CC)ccc12)C(=O)N[C@@H](CCCC)C(=O)N[C@@H](CC(C)C)C(=O)N1CCC[C@H]1C(=O)N[C@@H](Cc1c[nH]c2ccccc12)C(=O)N1CCC[C@H]1C(=O)O` [Compound 93] (RhodamineB-P[Ahx][dD][X1][Nle][Nle]LPWP-OH), the kinact/KI was 325 M⁻¹ s⁻¹. In the case of “Ac-D-Asp-Dap(Acrylamide)-Nle-Nle-Leu-Pro-Trp-Pro-OH [Compound 11]”, the “TG2 Inh. Mode” value was “No inhibition; also recorded: None **”.

Values taken from article PMC9960274, “Peptidic Inhibitors and a Fluorescent Probe for the Selective Inhibition and Labelling of Factor XIIIa Transglutaminase” (Molecules, 2023).
